pIC50: −log10 of the molar value.
Legend:
human BRD4 bromodomain 1 = human BRD4 bromodomain 1 (Homo sapiens (Human), UniProt O60885); assay: Bromodomain binding assay (BRD4 Alpha-screen); settings: acetylated histone H4 peptide
Procedure: Bromodomain binding assays were carried out in Reaction Biology (PA, USA) to test the degrees of the inventive compounds in inhibiting the human BRD4 bromodomain 1 by Alpha-screen assay method.
Recombinant human BRD4 bromodomain 1 expressed in E. coli with N-terminal His-tag was used as the enzyme target.
A synthetic peptide ([…]-GSGSK-biotin) containing 1 to 21th amino acids of histone H4 acetylated at lysine 5, 8, 12 and 16 and conjugated to biotin was purchased from Millipore.
BRD4-1 (44 to 170th amino acids; Genbank Accession # NM_058243) was expressed in E. coli with N-terminal His-tag (see, Ni-NTA spin Kit Handbook (Qiagen), second edition, January, 2008). Nickel-Chelate ALPHA acceptor beads (Perkin Elmer) were used to specifically bind BRD4-1, and ALPHA streptavidin donor beads (Perkin Elmer) were used because they specifically recognized the biotinylated H4 peptide.
BRD binding assays were performed in a mixture comprising 50 mM Hepes (pH7.5), 100 mM NaCl, 0.05% CHAPS, 0.1% BSA, and 1% DMSO. After an assay reaction time of 60 min at 25° C., binding was measured with streptavidin donor beads and nickel-chelate acceptor beads. ALPHA signal was detected on Enspire (Ex/Em=680/520-620 nm). IC50 values were calculated from the fit of the dose-response curves. All IC50 values represent geometric mean values of a minimum of four determinations. These assays generally produced results within 3-fold of the reported mean.

[1] = test system: LnCAP (human prostatic adenocarcinoma cell line); assay: Anti-proliferative activity test (CellTiter-Glo), LnCAP; format: cell-based; settings: first value of LnCAP/MV4-11 cell, read-out: Cell proliferation IC50 (LnCAP)
Procedure: (§1) IC50 (uM) of the compounds obtained in Examples 1 to 18 against hematological cancer cells and solid tumors was measured for identifying anti-proliferative activities.
(§2) A human prostatic adenocarcinoma cell line, LnCAP (ATCC®, CRL-1740) and human leukemia cell line MV4-11 (ATCC®, CRL-9591) were used to test the degrees of the compounds 1 to 18 in inhibiting the cancer cell growth. The testing cell concentration was adjusted to 6.7×10^3 cells/ml with a culture medium supplemented with 10% FBS, in the temperature of 37° C., 5% CO2 and 95% humidity. Culture media and FBS were purchased from GIBCO. 90 μL of cell suspensions thus obtained was added to two 96-well plates with the final cell density of 600 cells/well, followed by addition of 10 μL of culture medium to each well of plate. The plates were incubated overnight in a humidified incubator at 37° C. with 5% CO2.
(§3) Compounds 1 to 18 were each dissolved with dimethylsulfoxide (DMSO) or phosphate buffer solution (PBS) as a stock solution, and 200× solutions of test compound (2 mM) using DMSO were prepared. Then, the DMSO solution thus obtained was diluted 20-fold with culture medium or PBS to obtain 10× working solution. 10 μL of 10× working solution (drug solution) was dispensed to each well (triplicate for each concentration). The final concentration of DMSO in culture medium was 0.5% [v/v].
(§4) Cell viability was determined using CellTiter-Glo® (CTG) assay. 100 μL of CellTiter-Glo® was added to the equal volume of the cultured cells to read luminescence in EnVision Multi Label Reader.

[2] = test system: MV4-11 (human leukemia cell line); assay: Anti-proliferative activity test (CellTiter-Glo), MV4-11; format: cell-based; settings: second value of LnCAP/MV4-11 cell, read-out: Cell proliferation IC50 (MV4-11)
Procedure: as §1, §2, §3, §4

[3] = Human liver microsomal stability/clearance; format: in vitro ADME
Procedure: (§5) Human and mouse liver microsomal clearance assays were carried out in CROWN Biosciences (Taicang, China). The human liver microsomes (Cat No. X008067, Lot No. KQB) and mouse liver microsomes (Cat No. M1000, Lot No. 1210302) were purchased from Celsis and Xenotech, respectively.
(§6) 5 μL of test compound stock solution was diluted with 495 μL of 1:1 Methanol/Water (final concentration: 100 μM, 50% MeOH) and combined with 534 μL of the respective liver microsome solution (final concentration: 1.111 μM, 0.555% MeOH). The final concentration of the liver microsome solution was 0.7 mg protein/mL.
(§7) Incubations of the liver microsome solutions were performed in a 96 well plate at 37° C. 90 μL of the liver microsome solutions were added to Blank, and 90 μL of working solution of the test compound was added to all plates except the Blank.
(§8) All plates thus obtained were warmed in water bath at 37° C. for 10 min, and 10 μL of NADPH co-factor solution comprising 42 mg of β-nicotinamide adenine dinucleotide phosphate (Sigma Cat. No. N0505 Lot 020M7009V), 84 mg of isocitric acid (Sigma Cat. No. 11252 Lot 119K1099) and 0.478 mL of isocitric dehydrogenase (Sigma Cat. No. 12002 Lot 086K7055, 15 units/mg protein, warmed in water bath at 37° C. for 5 min was added to the plates. The resulting plates were incubated at 37° C. in the following order: T60 (The test compounds were incubated with the liver microsomal solution and NADPH for 60 min at 37° C.), T30 (such as for 30 min.), and T10 (such as for 10 min.). 300 μL of a cold (4° C.) stop solution (acetonitrile (ACN) including 500 nM of tolbutamide as internal standard) and 10 μL of NADPH co-factor solution to starting plate (T0: 100% of the parent compound without any reaction) were added to the plates. The reaction was stopped by adding 300 μL of the cold (4° C.) stop solution to the other plates in the following order: T10 first, then T30 and T60.
(§9) The samples were centrifuged at 4,000 rpm for 20 min and transferred to Bioanalytical Services for liquid chromatography-mass spectrometry (LC-MS)/MS (Waters UPLC/API 4000, 10 μL injection) analysis.

[4] = Mouse liver microsomal stability/clearance; format: in vitro ADME
Procedure: as §5, §6, §7, §8, §9

[5] = human liver microsomes, first value of Human/Mouse cell, read-out: Liver microsomal clearance (Human)
[6] = mouse liver microsomes, second value of Human/Mouse cell, read-out: Liver microsomal clearance (Mouse)

Compound	pIC50 (human BRD4 bromodomain 1)	pIC50 [1]	pIC50 [2]	microsomal CLint at 1 µM [3, 5] [µL/min/mg]	microsomal CLint at 1 µM [4, 6] [µL/min/mg]	microsomal CLint at 1 µM ([3]; human, microsomes) [µL/min/mg]	microsomal CLint at 1 µM ([4]; mouse, microsomes) [µL/min/mg]
COc1ccc2c(c1)C(c1ccc(Cl)cc1)=N[C@@H](COS(=O)(=O)c1ccccc1)c1nnc(C)n1-2 [Compound 5, (R)-(6-(4-chlorophenyl)-8-methoxy-1-methyl-4H-benzo[f][1,2,4]triazolo[4,3-a][1,4]diazepin-4-yl)methyl benzenesulfonate]	6.05	–	–	–	–	–	–
CCCS(=O)(=O)OC[C@@H]1N=C(c2ccc(Cl)cc2)c2cc(OC)ccc2-n2c(C)nnc21 [Compound 3, (R)-(6-(4-chlorophenyl)-8-methoxy-1-methyl-4H-benzo[f][1,2,4]triazolo[4,3-a][1,4]diazepin-4-yl)methyl propane-1-sulfonate]	6.41	6.08	5.74	71.3	39.7	–	–
Cc1nnc2n1-c1ccc(C(=O)NCCO)cc1C(c1ccc(Cl)cc1)=N[C@H]2COS(C)(=O)=O [Compound 14, (R)-(6-(4-chlorophenyl)-8-((2-hydroxyethyl)carbamoyl)-1-methyl-4H-benzo[f][1,2,4]triazolo[4,3-a][1,4]diazepin-4-yl)methyl methanesulfonate]	6.42	–	–	8.3	6.3	–	–
Cc1nnc2n1-c1ccc(-c3cnn(CC(=O)N(C)C)c3)cc1C(c1ccc(Cl)cc1)=N[C@H]2COS(C)(=O)=O [Compound 13, (R)-(6-(4-chlorophenyl)-8-(1-(2-(dimethylamino)-2-oxoethyl)-1H-pyrazol-4-yl)-1-methyl-4H-benzo[f][1,2,4]triazolo[4,3-a][1,4]diazepin-4-yl)methyl methanesulfonate]	6.96	6.37	6.54	12.3	7.4	–	–
Cc1nnc2n1-c1ccc(-c3cnn(CC(N)=O)c3)cc1C(c1ccc(Cl)cc1)=N[C@H]2COS(C)(=O)=O [Compound 12, (R)-(8-(1-(2-amino-2-oxoethyl)-1H-pyrazol-4-yl)-6-(4-chlorophenyl)-1-methyl-4H-benzo[f][1,2,4]triazolo[4,3-a][1,4]diazepin-4-yl)methyl methanesulfonate]	6.96	4.36	5.97	5.6	6.9	–	–
Cc1nnc2n1-c1ccccc1C(c1ccc(Cl)cc1)=N[C@H]2COS(C)(=O)=O [Compound 6, (R)-(6-(4-chlorophenyl)-1-methyl-4H-benzo[f][1,2,4]triazolo[4,3-a][1,4]diazepin-4-yl)methyl methanesulfonate]	5.85	–	–	–	–	–	–
CNS(=O)(=O)OC[C@@H]1N=C(c2ccc(Cl)cc2)c2cc(OC)ccc2-n2c(C)nnc21 [Compound 10, (R)-(6-(4-chlorophenyl)-8-methoxy-1-methyl-4H-benzo[f][1,2,4]triazolo[4,3-a][1,4]diazepin-4-yl)methyl methylsulfamate]	6.40	6.24	6.46	29	21	–	–
COc1ccc2c(c1)C(c1ccc(Cl)cc1)=N[C@@H](COS(=O)(=O)N(C)C)c1nnc(C)n1-2 [Compound 9, (R)-(6-(4-chlorophenyl)-8-methoxy-1-methyl-4H-benzo[f][1,2,4]triazolo[4,3-a][1,4]diazepin-4-yl)methyl dimethylsulfamate]	6.55	5.72	5.83	126	86	–	–
Cc1sc2c(c1C)C(c1ccc(Cl)cc1)=N[C@@H](COS(N)(=O)=O)c1nnc(C)n1-2 [Compound 16, (R)-(4-(4-chlorophenyl)-2,3,9-trimethyl-6H-thieno[3,2-f][1,2,4]triazolo[4,3-a][1,4]diazepin-6-yl)methyl sulfamate]	6.60	–	–	–	–	10	9
COc1ccc2c(c1)C(c1ccc(Cl)cc1)=N[C@@H](COS(=O)(=O)C1CC1)c1nnc(C)n1-2 [Compound 4, (R)-(6-(4-chlorophenyl)-8-methoxy-1-methyl-4H-benzo[f][1,2,4]triazolo[4,3-a][1,4]diazepin-4-yl)methyl cyclopropanesulfonate]	6.38	6.89	6.16	6.3	8.9	–	–
CNS(=O)(=O)OC[C@@H]1N=C(c2ccc(Cl)cc2)c2c(sc(C)c2C)-n2c(C)nnc21 [Compound 18, (R)-(4-(4-chlorophenyl)-2,3,9-trimethyl-6H-thieno[3,2-f][1,2,4]triazolo[4,3-a][1,4]diazepin-6-yl)methyl methylsulfamate]	6.80	–	–	–	–	51	49
Cc1sc2c(c1C)C(c1ccc(Cl)cc1)=N[C@@H](COS(=O)(=O)N(C)C)c1nnc(C)n1-2 [Compound 17, (R)-(4-(4-chlorophenyl)-2,3,9-trimethyl-6H-thieno[3,2-f][1,2,4]triazolo[4,3-a][1,4]diazepin-6-yl)methyl dimethylsulfamate]	6.05	–	–	–	–	171	138
